In brackets after ≈: the same amount, converted by molar mass. Several values for one entry are separate records, joined by “and”; a condition that tells them apart may be missing. Equal values may be shown once.
Assays:
Assay in all cases: ≥ marks a high value that may be exact or a test limit, other limits are often not marked, values filed in µg/mL are converted to µM
[1] = system: Batrachochytrium dendrobatidis JEL-197
[2] = system: Candida albicans ATCC 90028
[3] = system: Enterobacter cloacae NHTCC 53001
[4] = system: Staphylococcus aureus NCTC 8325
[5] = system: Klebsiella pneumoniae KK3 9904
[6] = system: Escherichia coli ATCC 25922
[7] = system: Pseudomonas aeruginosa ATCC 27853
[8] = system: Klebsiella pneumoniae ATCC 43816
[9] = system: Candida albicans ATCC 10231
[10] = system: Staphylococcus aureus ATCC 43300
[11] = system: Pseudomonas aeruginosa ATCC 9027
[12] = system: Enterococcus faecalis NCTC 12697
[13] = system: Staphylococcus aureus ATCC 6538
[14] = system: Klebsiella pneumoniae ATCC BAA-1705
[15] = system: Escherichia coli ATCC BAA-2340
[16] = system: Staphylococcus aureus ATCC 12493
Staphylococcus aureus = system: Staphylococcus aureus
[17] = system: Staphylococcus aureus B038 V1S1A
Vibrio splendidus LGP-32 = system: Vibrio splendidus LGP-32
[18] = system: Vibrio aestuarianus IFREMER
[19] = system: Vibrio alginolyticus IFREMER
[20] = system: Escherichia coli CIP 54.8
[21] = system: Staphylococcus aureus CIP 53.156
[22] = system: Listeria monocytogenes LME, Caen
[23] = system: Aeromonas salmonicida CIP 103209T
[24] = system: Enterococcus faecalis CIP 76.117
[25] = system: Pseudomonas aeruginosa CIP A22
[26] = system: Vibrio splendidus IFREMER
[27] = system: Salmonella typhimurium LME, Caen
[28] = system: Klebsiella pneumoniae CIP 52.145
Vibrio splendidus SATMAR = system: Vibrio splendidus SATMAR
[29] = system: Vibrio aestuarianus CIP 109791T
[30] = system: Bacillus megaterium CIP 51.17
[31] = system: Vibrio vulnificus CIP 109783
Salmonella typhimurium = system: Salmonella typhimurium
[32] = system: Bacillus subtilis IAM 1026
[33] = system: Vibrio anguillarum NCIMB 829
[34] = system: Escherichia coli JCM 1649
[35] = system: Aeromonas salmonicida NCIMB 1102
[36] = system: Photobacterium damselae subsp. piscicida Sp 9587
[37] = system: Staphylococcus aureus IAM 1011
[38] = system: Vibrio parahaemolyticus Vp+1
[39] = system: Shewanella putrefaciens IAM 1509

With `CC[C@H](C)[C@H](NC(=O)CN)C(=O)N[C@@H](CC(C)C)C(=O)N[C@@H](CC(=O)O)C(=O)N[C@@H](CO)C(=O)N[C@@H](Cc1ccccc1)C(=O)N[C@@H](CCCCN)C(=O)N[C@@H](CC(=O)O)C(=O)N[C@H](C(=O)N[C@@H](C)C(=O)N[C@@H](CCCCN)C(=O)NCC(=O)N[C@H](C(=O)N[C@@H](C)C(=O)N[C@H](C(=O)N[C@@H](Cc1cnc[nH]1)C(=O)N[C@@H](CC(C)C)C(=O)N[C@@H](CC(C)C)C(=O)N[C@@H](CC(N)=O)C(=O)N[C@@H](CCSC)C(=O)N[C@@H](C)C(=O)N[C@@H](CCCCN)C(=O)N[C@H]1CSSC[C@@H](C(=O)O)NC(=O)CNC(=O)[C@H]([C@@H](C)O)NC(=O)[C@H](CCSC)NC(=O)[C@H](CCCCN)NC1=O)[C@@H](C)O)C(C)C)C(C)C` [GILDSFKDVAKGVATHLLNMAKCKMTGC] as the compound, how does the MIC [1] read?
Its MIC is ≥ 100 µM.

How did the MIC [2] turn out when `CC[C@H](C)[C@H](NC(=O)[C@H](Cc1cnc[nH]1)NC(=O)[C@H](CCCCN)NC(=O)CNC(=O)[C@H](C)NC(=O)[C@@H](NC(=O)[C@H](CCCCN)NC(=O)[C@H](CC(C)C)NC(=O)[C@@H](NC(=O)CNC(=O)[C@H](CCCN=C(N)N)NC(=O)[C@H](Cc1ccccc1)NC(=O)[C@H](CC(C)C)NC(=O)[C@H](CO)NC(=O)[C@H](CCSC)NC(=O)[C@H](CC(C)C)NC(=O)CN)C(C)C)[C@@H](C)O)C(=O)N[C@@H](Cc1ccccc1)C(=O)N[C@@H](CCCCN)C(=O)N[C@@H](CC(N)=O)C(=O)N[C@H](C(=O)NCC(=O)NCC(=O)N[C@@H](CO)C(=O)N[C@@H](CC(C)C)C(=O)N[C@@H](CC(C)C)C(=O)N[C@@H](CC(=O)O)C(=O)N[C@@H](CCC(N)=O)C(=O)N[C@@H](C)C(=O)N[C@@H](CCCCN)C(=O)N[C@H]1CSSC[C@@H](C(=O)O)NC(=O)[C@H](CCC(=O)O)NC(=O)CNC(=O)[C@H]([C@@H](C)O)NC(=O)[C@H]([C@@H](C)CC)NC(=O)[C@H](CCCCN)NC1=O)C(C)C` [GLMSLFRGVLKTAGKHIFKNVGGSLLDQAKCKITGEC] was run?
The MIC was ≥ 100 µM.

And the MIC [3]?
The MIC was 6 µM (≈ 23.5 µg/mL).

What about the MIC [4] of the same compound?
The MIC was 25 µM (≈ 98 µg/mL).

And the MIC [5]?
The MIC was 6 µM (≈ 23.5 µg/mL).

And the MIC [6]?
Its MIC is 3 µM (≈ 11.8 µg/mL).

What about the MIC [7] of the same compound?
The MIC was 3 µM (≈ 11.8 µg/mL).

For `CC[C@H](C)[C@H](NC(=O)[C@H](CCCCN)NC(=O)[C@@H](NC(=O)[C@H](CO)NC(=O)[C@H](CC(N)=O)NC(=O)[C@H](Cc1c[nH]c2ccccc12)NC(=O)[C@H](CC(C)C)NC(=O)CN)[C@@H](C)CC)C(=O)N[C@@H](C)C(=O)NCC(=O)N[C@@H](CCCCN)C(=O)N[C@@H](CCCCN)C(=O)N[C@@H](CC(C)C)C(=O)N[C@@H](Cc1ccccc1)C(=O)N[C@H](C(=O)N[C@@H](CC(N)=O)C(=O)N[C@H](C(=O)N[C@@H](CC(C)C)C(=O)N[C@@H](CC(=O)O)C(=O)N[C@@H](CCCCN)C(=O)N[C@H](C(=O)N[C@@H](CCCN=C(N)N)C(=O)N[C@H]1CSSC[C@@H](C(=O)O)NC(=O)CNC(=O)CNC(=O)[C@H](C)NC(=O)[C@H](C(C)C)NC(=O)[C@H](CCCCN)NC1=O)[C@@H](C)CC)C(C)C)C(C)C` [GLWNSIKIAGKKLFVNVLDKIRCKVAGGC], which MIC [8] is on record?
Its MIC is 8 µM (≈ 25 µg/mL).

What about the MIC [9] of the same compound?
The MIC was 128 µM (≈ 401 µg/mL).

And the MIC [10]?
The MIC was 12.5 µM (≈ 39.1 µg/mL).

What about the MIC [2] of the same compound?
Its MIC is ≥ 100 µM.

And the MIC [11]?
The MIC was 16 µM (≈ 50.1 µg/mL).

And the MIC [12]?
Its MIC is 16 µM (≈ 50.1 µg/mL).

What about the MIC [13] of the same compound?
The MIC was 1.6 µM and 4 µM.

What about the MIC [14] of the same compound?
Its MIC is 4 µM (≈ 12.5 µg/mL).

What about the MIC [15] of the same compound?
Its MIC is 2 µM (≈ 6.26 µg/mL).

And the MIC [16]?
The MIC was 8 µM (≈ 25 µg/mL).

And the MIC (Staphylococcus aureus)?
The MIC was 4 µM (≈ 12.5 µg/mL).

And the MIC [17]?
Its MIC is 2 µM (≈ 6.26 µg/mL).

For `CC(C)C[C@H](NC(=O)CNC(=O)[C@H](Cc1ccccc1)NC(=O)[C@H](Cc1ccccc1)NC(=O)[C@H](CC(C)C)NC(=O)CNC(=O)[C@H](Cc1ccccc1)NC(=O)[C@H](CC(C)C)NC(=O)[C@@H]1CCCN1C(=O)[C@H](CCCCN)NC(=O)[C@H](CCCCN)NC(=O)[C@H](CCCCN)NC(=O)[C@@H](N)CCCCN)C(=O)N[C@@H](Cc1ccccc1)C(=O)O` [KKKKPLFGLFFGLF], which MIC (Vibrio splendidus LGP-32) is on record?
The MIC was 24.5 µM (≈ 40.9 µg/mL).

And the MIC [18]?
The MIC was 4.23 µM (≈ 7.07 µg/mL).

What about the MIC [19] of the same compound?
Its MIC is 4.23 µM (≈ 7.07 µg/mL).

What about the MIC [20] of the same compound?
Its MIC is 4.23 µM (≈ 7.07 µg/mL).

What about the MIC [21] of the same compound?
The MIC was 8.47 µM (≈ 14.1 µg/mL).

And the MIC [22]?
Its MIC is 16.9 µM (≈ 28.3 µg/mL).

What about the MIC [23] of the same compound?
Its MIC is 14.1 µM (≈ 23.6 µg/mL).

What about the MIC [24] of the same compound?
Its MIC is ≥ 67.7 µM.

And the MIC [25]?
Its MIC is ≥ 33.9 µM.

What about the MIC [26] of the same compound?
The MIC was 8.47 µM (≈ 14.1 µg/mL).

And the MIC [27]?
The MIC was ≥ 33.9 µM.

What about the MIC [28] of the same compound?
The MIC was ≥ 33.9 µM.

What about the MIC (Vibrio splendidus SATMAR) of the same compound?
The MIC was 14.1 µM (≈ 23.6 µg/mL).

What about the MIC [29] of the same compound?
The MIC was 14.1 µM (≈ 23.6 µg/mL).

What about the MIC [30] of the same compound?
The MIC was 4.23 µM (≈ 7.07 µg/mL).

And the MIC [31]?
The MIC was ≥ 50 µM.

How did the MIC (Salmonella typhimurium) turn out when `CC[C@H](C)[C@H](NC(=O)[C@H](C)NC(=O)CNC(=O)[C@@H](NC(=O)[C@@H](NC(=O)[C@H](CCC(N)=O)NC(=O)[C@@H]1CCCN1C(=O)[C@@H](NC(=O)[C@H](C)NC(=O)CNC(=O)[C@@H](NC(=O)[C@@H](NC(=O)[C@H](Cc1cnc[nH]1)NC(=O)[C@@H]1CCCN1C(=O)[C@H](CC(C)C)NC(=O)[C@H](CC(C)C)NC(=O)[C@@H]1CCCN1C(=O)[C@@H](NC(=O)[C@H](CC(C)C)NC(=O)[C@H](Cc1ccccc1)NC(=O)CNC(=O)[C@H](Cc1ccccc1)NC(=O)[C@@H](N)CC(C)C)[C@@H](C)CC)[C@@H](C)CC)[C@@H](C)CC)[C@@H](C)CC)C(C)C)[C@@H](C)CC)C(=O)N[C@@H](CCCN=C(N)N)C(=O)O` [LFGFLIPLLPHIIGAIPQVIGAIR] was run?
The MIC was 19.5 µM (≈ 50 µg/mL).

What about the MIC [32] of the same compound?
The MIC was 4.87 µM (≈ 12.5 µg/mL).

And the MIC [33]?
Its MIC is 9.73 µM (≈ 25 µg/mL).

What about the MIC [34] of the same compound?
Its MIC is 19.5 µM (≈ 50 µg/mL).

What about the MIC [35] of the same compound?
Its MIC is 19.5 µM (≈ 50 µg/mL).

What about the MIC [36] of the same compound?
The MIC was 2.43 µM (≈ 6.25 µg/mL).

And the MIC [37]?
Its MIC is 2.43 µM (≈ 6.25 µg/mL).

And the MIC [38]?
The MIC was 9.73 µM (≈ 25 µg/mL).

What about the MIC [39] of the same compound?
Its MIC is 2.43 µM (≈ 6.25 µg/mL).
